Measurements as given in patent publication US8883852B2, “Radioprotective agents” (University of Pittburgh—Of the Commonwealth System of …, priority 2008, dated 2014).
Entries after “also recorded” stand apart in the source; their conditions may differ.

Assays:
[1] = test system: BEAS-2B cells; test: Irradiation-induced cell death, flow cytometry; assay type: cell-based, human; conditions: 1-h prior to irradiation (10 Gy)
Experimental: (§1) Cells were cultured in fresh medium prior to irradiation and were γ-irradiated with a Shepherd model 143-45A irradiator (J. L. Shepherd & Associates, CA) at a dose rate of 4 Gy/min. Cells were incubated with drugs at the indicated concentrations 1 h before or 30 min after irradiation. Cell viability was determined using phosphatidylserine (PS) externalization/propidium iodide (PI) permeabilization assay or LDH Assay after 72 h post-irradiation incubation.
(§2) After 72 h post-irradiation incubation, attached cells were harvested by trypsinization and pooled with detached cells from supernatant. Harvested cells were then stained with annexin-V-FITC and PI for 5 min in the dark prior to flow cytometry analysis (FACscan, Becton-Dickinson, Rutherford, N.J.). Cell debris was gated out by forward and side scatter under the same conditions, and a minimum of 10,000 gated cells were acquired. Percentages of annexin-V-positive cells were calculated by combining annexin V+/PI− (early apoptotic) and annexin V+/PI+ (late apoptotic or necrotic) cells.
(§3) Cells were exposed to γ-irradiation at different doses (10 or 25 Gy) based on their radiosensitivity. […] The mechanisms responsible for the differences in glyburide response are not known but are worthy of further investigation.

[2] = test system: U-87 MG cells; test: Irradiation-induced cell death, flow cytometry; assay type: cell-based, human; conditions: 1-h prior to irradiation (10 Gy)
Experimental: as §1, §2, §3

[3] = test system: human primary astrocytes; test: Irradiation-induced cell death, LDH release assay; assay type: cell-based; conditions: 50 and 100 μM, 1-h prior to irradiation (25 Gy)
Experimental: as §1
For human primary astrocytes, cell viability was determined by assaying the medium from each sample for LDH activity according to the manufacturer's instructions (Sigma). The enzyme activity from the culture medium and floating cells were used as an index of cell death. To determine total LDH activity, the adherent cells were lysed in 0.5% Triton X-100 and assayed for LDH activity, this cell-associated LDH activity was then added to the LDH activity in the removed culture medium. The amount of LDH present in the medium was calculated as a percentage of the total, which was used to calculate the percent cell death in the corresponding samples.
as §3

[4] = test system: 32D cl 3 cells; test: In vitro irradiation survival curves (clonogenic survival assay); assay type: cell-based, mouse
Experimental: The cells were irradiated with doses ranging from 0 to 8 Gy. The 32D cl 3 cells were plated in methycellulose, incubated at 37° C. for one week at which time colonies of greater than 50 cells were counted (Epperly, M. W. et al. Mitochondrial localization of superoxide dismutase is required for decreasing radiation induced cell damage. Radiat. Res. 160, 568-578 (2003) and Epperly, M. W. et al. Ethyl pyruvate, a potentially effective total body irradiation damage mitigator. Radiat. Res. 168, 552-559 (2007)). The data were analyzed using linear quadratic and single-hit, multi-target models (Id.).

[5] = test system: T98G cells; test: Irradiation-induced cell death, PS externalization/PI permeabilization by flow cytometry; assay type: cell-based, human; conditions: for irradiation induced cell death (PS externalization/PI permeability): drug 1-h prior to 25 Gy γ-irradiation, glyburide 12.5-200 μM, 72 h post-irradiation
Experimental: as §1, §2
In the present study, we selected 10 chemicals that targeted 13 candidate siRNA gene transcripts for further study (Table 3). The radioprotective effects of the compounds were tested in T98G cells, which were initially used in the siRNA screen. […] The other nine chemicals lacked any obvious protective effect on γ-irradiation induced cell death under the current experimental conditions (FIG. 4A).

[6] = Hypoglycemia at the dose of glyburide used in the present study; assay type: in vivo
[7] = test system: C57BL/6NHsd female mice; test: In vivo irradiation survival curves, total body irradiation; parameters: species or system mouse
Source text: Other groups of mice were control mice, or vehicle only irradiated mice.
The mice were followed for the development of irradiation induced damage to the hematopoietic system which occurs within the first 30 days after irradiation (FIG. 7).

[8] = test system: KM101 cells; test: Irradiation-induced cell death, cell-based assay; parameters: species or system human; conditions: γ-irradiated (10 or 25 Gy), data not shown
Experimental: as §1, §3

[9] = test system: H1299 cells; test: Irradiation-induced cell death, cell-based assay; parameters: species or system human; conditions: γ-irradiated (10 or 25 Gy), data not shown
Experimental: as §1, §3

[10] = test system: HeLa cells; test: Irradiation-induced cell death, cell-based assay; parameters: species or system human; conditions: γ-irradiated (10 or 25 Gy), data not shown
Experimental: as §1, §3

COc1ccc(Cl)cc1C(=O)NCCc1ccc(S(=O)(=O)NC(=O)NC2CCCCC2)cc1 [glyburide, 5-chloro-N-[2-[4-(cyclohexylcarbamoylsulfamoyl)phenyl]ethyl]-2-methoxy-benzamide]
radioprotection [1]: effective radioprotection
radioprotection ([1]; listed as Glyburide): effectively relieved irradiation induced cell death
radioprotection [2]: effective radioprotection
radioprotection ([2]; listed as Glyburide): effectively relieved irradiation induced cell death
radioprotection [3]: effective radioprotection
radioprotection ([3]; listed as Glyburide): effectively relieved irradiation induced cell death
n or shoulder on the irradiation survival curve ([4]; 10 μM in methylcellulose following irradiation (0-8 Gy)): 2.5±0.9
survival of 32D cl 3 cells ([4]; 10 μM, 1-h before irradiation (0-8 Gy)): significantly increased the survival
protection over a range of irradiation exposure ([5]; 200 μM, 1-h prior to 5-25 Gy): effectively protected cells
irradiation induced apoptosis, post-irradiation treatment ([5]; added 30-min after γ-irradiation (25 Gy)): protected cells from irradiation induced apoptosis to a similar extent
irradiation induced cell death (PS externalization/PI permeability) [5]: attenuated irradiation induced cell death in a concentration-dependent manner; also recorded: demonstrated radioprotective effect
irradiation induced cell death (PS externalization/PI permeability) ([5]; listed as Glyburide): effectively relieved irradiation induced cell death
hypoglycemia [6]: did not cause hypoglycemia
survival compared to irradiated controls ([7]; 5 mg/kg i.p. 10 min after 9.5 Gy total body irradiation): no significant increase in survival; also recorded: not protected from irradiation
survival compared to irradiated controls and vehicle only ([7]; 5 mg/kg i.p. 10 min before 9.5 Gy total body irradiation, P=0.04): significantly increased survival; also recorded: protected as seen by an increase in survival; also recorded: increased the survival rate
mice survived ([7]; 5 mg/kg intraperitoneal 10 min before 9.5 Gy total body irradiation): 60%
mice survived ([7]; glyburide injected 10-min after 9.5 Gy total body irradiation): 44%
radioprotection [8]: no protective effect; also recorded: only limited protection
radioprotection [9]: no protective effect; also recorded: only limited protection
radioprotection [10]: no protective effect; also recorded: only limited protection
